Key:
Format in all cases: physicochemical
[1] = Color change of the reaction mixture before and after polymerization (stability during polymerization); settings: methyl acrylate/ethylene copolymerization in toluene, 150° C., 4 MPa
Protocol: A 400 mL stainless-steel autoclave was dried sufficiently, and a gas in the autoclave was displaced with a nitrogen gas. There was put in the autoclave, at ordinary temperature and atmospheric pressure, 1.61 g of [dodecyl(tetramethyl)cyclopentadienyl]iron carbonyl dimer (transition metal compound) obtained in Reference Example 2, and then, 18 mL of methyl acrylate manufactured by Tokyo Chemical Industry Co., Ltd. and 18 mL of purified toluene as a polymerization solvent were put therein using a syringe. After heating the mixture up to 150° C., ethylene (olefin) was pressed into the autoclave up to its pressure of 4.0 MPa. Finally, 2.0 mL of a toluene solution of 2-iodobutane (manufactured by Tokyo Chemical Industry Co., Ltd.) having a concentration of 1.0 mol/L was put therein, thereby copolymerizing methyl acrylate and ethylene at 150° C. for 10 minutes. The copolymerization reaction mixture was subjected to distillation under reduced pressure to distil away the remaining monomer (methyl acrylate) and the solvent (toluene). The resultant solid was dried for three hours in a vacuum dryer (80° C.), thereby obtaining 8.7 g of a random copolymer of methyl acrylate and ethylene. Both the original mixture before copolymerization and the copolymerization reaction mixture were red. […]

[2] = Saturated solubility of the transition metal compound in a solvent at 23° C.; settings: amount dissolved in 10 mL of saturated solution (Note-1)
[3] = Polymer dipped in heptane (transfer of the transition metal compound to heptane); settings: poly(butyl acrylate) made at 60° C. in toluene, containing the transition metal compound
Excerpt: Its molecular weight distribution (Mw/Mn) of 3.2 was a single peak distribution. When dipping said polymer in heptane, the transition metal compound contained in said polymer was transferred to heptane, and said polymer was decolorized from red to very pale yellow.
Its molecular weight distribution (Mw/Mn) of 3.9 was a single peak distribution. When dipping said polymer in heptane, the transition metal compound contained in said polymer was hardly transferred to heptane, and said polymer remained red and was not decolorized.

Row | Color change of the reaction mixture before and after polymerization [1] | Saturated solubility ([2]; hexane) [mmol] | Polymer dipped in heptane [3] | Saturated solubility ([2]; toluene) [mmol] | Compound
1 | non-changed | 131.4 | decolorized |  | [dodecyl(tetramethyl)cyclopentadienyl]iron carbonyl dimer
2 |  | 0.8 |  | 19.3 | Cc1c(C)c(C)[c-](C)c1C.Cc1c(C)c(C)[c-](C)c1C.[C-]#[O+].[C-]#[O+].[C-]#[O+].[C-]#[O+].[Fe+][Fe+] [[(pentamethyl)cyclopentadienyl]iron carbonyl dimer]
3 |  | 2.4 |  | 167.3 | (cyclopentadienyl)iron carbonyl dimer
4 |  | 96.8 |  |  | [octyl(tetramethyl)cyclopentadienyl]iron carbonyl dimer

— patent US20070270521A1, “Transition metal compound, polymerization-initiator system comprising the same, and process for producing polymer” (Sumitomo Chemical Company, Limited, priority 2006, published 2007)
